Results from patent US20040057926A1, “Modulation of the immune response through the manipulation of arginine levels” (LSU Medical Center, priority 2002, published 2004).

B1: IFN-γ: murine rIFN-γ (100 U/ml), Th1 cytokine used to stimulate PM (protein, UniProt P01580 23-155, looked up)
Interferon gamma: HGTVIESLESLNNYFNSSGIDVEEKSLFLDIWRNWQKDGDMKILQSQIISFYLRLFEVLKDNQAISNNISVIESHLITTFFSNSKAKKDAFMSIAKFEVNNPQVQRQAFNELIRVVHQLLPESSLRKRKRSRC

Legend:
[1] = system: peritoneal macrophages (PM); experiment: Extra-cellular L-Arg concentration in supernatants of peritoneal macrophages (HPLC); type: cell-based, mice; conditions: for extra-cellular L-Arg levels (mean of three experiments): L-Arg 2 mM, NOHA 100 μM, Nor-NOHA 50 μM
Procedure: Jurkat T-cells, a CD4^+ cell line (Clone E6-1) (ATCC, Manassas, Va.) and normal stimulated T-cells were used to test the effect of ASE I, ASE II and iNOS produced by PM on CD3ζ expression. Six-week old female C57BL/6 mice were used to isolate peritoneal macrophages (PM). Briefly, 3 ml of thioglycolate-brewer (Becton Dickinson, San Jose, Calif.) were injected into the peritoneal cavity of mice for 3 days. Mice were then sacrificed and PM isolated by washing the peritoneum with HBSS. After 2 days of culture in RPMI with 4% fetal bovine serum, unattached cells were washed off and attached cells were used in co-cultures with Jurkat or normal T-cells.
(§1) PM were cultured in 6 well plates in RPMI containing 150 μM L-Arg and stimulated with murine rIL-4 (50 U/ml) and murine rIL-13 (50 ng/ml), or murine rIFN-γ (100 U/ml) for 24 hours. Then 1×10^6 normal T-cells stimulated with anti-CD3 plus anti-CD28 or 1×10^6 Jurkat cells, were cultured in the top chamber of a transwell system having 0.4 μm pores (Falcon, Franklin lakes, N.J.). CD3ζ expression was measured in Jurkat cells or T lymphocytes at different time points. PM were detached using trypsin/EDTA and the expression of protein and RNA for CAT-2B, ASE I, ASE II and iNOS was tested by western blot and northern blot respectively. Cytoplasmic extracts from PM were used to test ASE activity. Supernatants from stimulated PM were used to measure NO production using the Griess reagent method (Molecular Probes, Eugene, Oreg.). In addition, the extra-cellular concentration of L-Arg was tested in supernatants by HPLC (Dr. Gu Yao Wu laboratory, University of Texas) as described previously. O'Quinn, P. R., D. A. Knabe, and G. Wu. 2002. Arginine catabolism in lactating porcine mammary tissue. J Anim Sci. 80:467-474.

[2] = system: Jurkat cells; experiment: Co-culture in transwells of stimulated PM and Jurkat cells, CD3ζ expression; type: cell-based
Procedure: as §1
Flow cytometry analysis was performed as previously described. Taheri, F., J. B. Ochoa, Z. Faghiri, K. Culotta, H. J. Park, M. S. Lan, A. H. Zea, and A. C. Ochoa. 2001. L-Arginine regulates the expression of the T-cell receptor zeta chain (CD3zeta) in Jurkat cells. Clin Cancer Res 7:958s-965s. Briefly, 5×10^5 Jurkat cells or T lymphocytes were washed once with Dulbecco phosphate-buffered saline 1× (D-PBS) and resuspended in 200 μL of D-PBS containing 1 μg of anti-CD3ε or isotype control. Cells were incubated for 15 min at 4° C., washed with D-PBS and resuspended in 200 μl D-PBS containing 500 μg/ml of digitonin plus 1 μg of anti-CD3ζ or 1 μg of isotypic control. Cells were incubated for 8 minutes after which they were washed and resuspended in 400 μl of D-PBS. Fluorescence acquisition and analysis were done using a Coulter-EPICS XL flow cytometer (Beckman-Coulter) with a 488 nm argon laser. The data were expressed as mean channel fluorescence intensity (MFI).

[3] = system: T lymphocytes; experiment: Co-culture in transwells of stimulated PM and stimulated normal T lymphocytes, CD3ζ expression; type: cell-based, human
Procedure: T-cells were isolated from mononuclear cells of healthy donors by T-cell enrichment columns (R&D Systems, Minneapolis, Minn.) according to manufacturer specifications. T-cell purity (CD3+) ranged between 89-95%. The cycle of internalization and re-expression of the TCR-CD3 complex was induced by T-cell stimulation with 1 μg/ml of anti-CD3, 100 ng/ml of anti-CD28 (Becton Dickinson) and 10 μg/ml of goat anti-mouse IgG (KPL, Gaithersburg, Md.). Cells were stimulated in the absence of L-Arg and added to the co-cultures 24 h after stimulation.
as §1
Flow cytometry analysis was performed as previously described. Taheri, F., J. B. Ochoa, Z. Faghiri, K. Culotta, H. J. Park, M. S. Lan, A. H. Zea, and A. C. Ochoa. 2001. […] Fluorescence acquisition and analysis were done using a Coulter-EPICS XL flow cytometer (Beckman-Coulter) with a 488 nm argon laser. The data were expressed as mean channel fluorescence intensity (MFI).

[4] = system: ASE; experiment: ASE activity assay (L-ornithine production) in PM lysates; type: biochemical, mice; conditions: NOHA 100 μM, Nor-NOHA 50 μM
Procedure: Cell lysates from PM stimulated with IL-4+IL-13 or IFN-γ were tested for ASE activity by measuring the production of L-ornithine. In brief, cell lysates from PM stimulated with IL-4+IL-13 or IFN-γ in the presence or absence of NOHA or Nor-NOHA were added to 50 μl of Tris-HCl (50 mM; pH 7.5) containing 10 mM MnCl2. This mixture was heated at 55-60° C. for 10 min to activate ASE. The hydrolysis reaction from L-Arg to L-ornithine was identified by a colorimetric assay after the addition of ninhydrin solution and incubation at 37° C. for 1 h.

[5] = system: ASE I; experiment: Western blot for ASE I in PM cytoplasmic extracts; type: cell-based, mice
Procedure: Cytoplasmic extracts from PM, Jurkat cells or T lymphocytes were prepared as previously reported. Taheri, F., J. B. Ochoa, Z. Faghiri, K. Culotta, H. J. Park, M. S. Lan, A. H. Zea, and A. C. Ochoa. 2001. L-Arginine regulates the expression of the T-cell receptor zeta chain (CD3zeta) in Jurkat cells. Clin Cancer Res 7:958s-965s. Briefly, cells were resuspended in lysis buffer (50 mM HEPES, 150 mM NaCl, 5 mM EDTA, 1 mM NaOV4 and 0.5% Triton) containing 50 μg/ml of aprotinin, 50 μg/ml of leupeptin, 100 μg/ml of trypsin-chymotrypsin inhibitor and 2 mM PMSF. Lysates were centrifuged at 3000×g for 10 min at 4° C. Cytoplasmic extracts from Jurkat or T-cells were immunoblotted for CD3ζ and CD3ε. The expression ASE I, ASE II and iNOS was detected by immunoblot using PM extracts. GAPDH was used as housekeeping protein. Cytoplasmic extracts were electrophoresed in 12 or 8% Tris-Glycine gels (Novex, San Diego, Calif.), transferred to PVDF membranes and immunoblotted with the appropriate antibodies. The reactions were detected using the ECL kit (Amersham-Pharmacia).

[6] = system: 3LL lung carcinoma; experiment: Anti-tumor effect on 3LL lung carcinoma in C57Bl/6 mice; type: in vivo
Procedure: The anti-tumor effect of arginase inhibitor Nor-NOHA was also measured on these tumor cells. C57Bl/6 mice were injected with one million 3LL lung carcinoma cells on the flank. […] Control mice received normal saline solution. Tumors were measured and the tumor volume was calculated in cubic […]. […] Materials and methods for this example were similar to those described in the above examples.

[7] = system: CAT-2B; experiment: CAT-2B mRNA expression in PM (northern blot); type: cell-based, mice
Text: Anti-CD3ε-FITC, anti-CD3ζ-PE (Beckman-Coulter, Miami, Fla.) were used for flow cytometry. Mouse IgG1-FITC and mouse IgG1-PE (Beckman-Coulter) were used as isotype controls. Monoclonal antibodies against CD3ζ (Santa Cruz Biotechnologies, Santa Cruz, Calif.), CD3ε (DAKO, Carpinteria, Calif.), iNOS (Santa Cruz Biotechnologies), ASE I (Transduction-Becton Dickinson) and ASE II (a kind gift of Dr. Sidney Morris Jr) were used for western blots. To test the expression of CAT transporters mRNA, specific amplification products from RT-PCR of CAT-1, CAT-2A, CAT-2B and CAT-3 were purified from agarose gels and used as probes to detect CAT expression by northern blot. Murine full-length cDNA for glyceraldehyde-3 phosphate dehydrogenase (GAPDH) (1.6 Kb) (Clontech, Palo Alto, Calif.) was used as housekeeping control.
Two million PM stimulated with IL-4+IL-13 or IFN-γ were used for RNA extraction using lysis with TRIzol (Invitrogen-Gibco) following the manufacturer's specifications. Four micrograms of total RNA from each sample were electrophoresed under denaturing conditions, blotted onto nytran membranes (Schleicher & Schuell Inc, Keene, N.H.) and cross-linked by UV irradiation. Membranes were pre-hybridized at 42° C. in ULTRAhyb buffer (Ambion, Austin, Tex.) and hybridized overnight with 1×10^6 cpm/mL of ^32P-labeled probe. […]

Molecule | extra-cellular L-Arg levels (mean of three experiments) ([1]; Non-stimulated PM) [µM] | extra-cellular L-Arg levels (mean of three experiments) ([1]; PM stimulated with IL-4 + IL-13) [µM] | rapid decrease in the extra-cellular levels of L-Arg ([1]; PM stimulated with IL-4+IL-13) | CD3ζ in Jurkat cells co-cultured with PM stimulated with IL-4+IL-13 ([2]; NOHA 100 μM, Nor-NOHA 50 μM, L-Arg 2 mM, L-NIL 5 μg/ml, catalase 200 U/ml, L-NMMA, L-NNA, L-NAME 1 mM) | CD3ζ in normal stimulated T lymphocytes co-cultured with IL-4+IL-13 activated PM [3] | intracellular ASE activity [4] | ASE I up regulation after IL-4+IL-13 stimulation ([5]; NOHA 100 μM, Nor-NOHA 50 μM) | tumor growth (tumor volume) ([6]; 20 or 40 mgs/kg subcutaneously, contralateral flank) | tumor growth, comparison of doses ([6]; 40 mgs/kg, the highest dose tested) | change of extra-cellular L-Arg by stimulated PM ([1]; similar to unstimulated PM) | expression of CD3ζ and CD3ε in Jurkat cells co-cultured with cytokine-stimulated PM ([2]; rIL-4 50 U/ml, rIL-13 50 ng/ml, rIFN-γ 100 U/ml) | CD3ζ in stimulated T-cells co-cultured with cytokine-stimulated PM ([3]; transwells) | ASE I expression in PM stimulated with cytokines ([5]; 24 hours) | CAT-2B mRNA expression in stimulated PM [7]
N=C(NO)NCC[C@H](N)C(=O)O [Nor-NOHA, N(omega)-hydroxy-nor-l-arginine] | 109.8 | 73.8 | partially blocked the rapid decrease | prevented the decrease of CD3ζ | prevented the loss of CD3ζ | blocked intracellular ASE activity | did not prevent ASE I up regulation | significant arrest of tumor growth | most effective | – | – | – | – | –
B1 | – | – | – | – | – | – | – | – | – | moderate decrease in L-Arg | did not alter CD3ζ or CD3ε expression | normal cycle of internalization and re-expression of CD3ζ within 48 hours | decrease ASE I expression | no increase in CAT-2B mRNA
